Drawing on PubChem BioAssay (NCI), this text covers TGI for twelve compounds.

Test systems include HOP-62 NSCLC; PC-3 prostate; HCT-15 colon; KM12 colon; A549 NSCLC; HCT-116 colon; MDA-N; HOP-92 NSCLC; NCI/ADR-RES ovarian; SN12C renal; CCRF-CEM leukemia.
What all share (test): inhibition of tumour cell growth, NCI panel, 48 h

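Where inhibition never reached the appropriate level, the endpoint shown equals the highest concentration tested. Otherwise, values were interpolated linearly from a five-concentration, 48-hour dose response in 96-well plates. TGI denotes the concentration required for complete inhibition of growth.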 Bounds are passed on as bounds.

Turning to `COc1cc2c(/C=C3/C(=O)Nc4ccccc43)c(Cl)[nH]c2cc1C`, the TGI with HOP-62 NSCLC stood at 26.4 µM; in the test with PC-3 prostate, 16.3 µM; in the test with HCT-15 colon it was 11 µM; in the test with KM12 colon, 0.232 µM; in the test on A549 NSCLC, 22.7 µM; in the test with HCT-116 colon it was 11 µM. The TGI in the test on MDA-N is 0.0396 µM; with HOP-92 NSCLC it was 26.6 µM; in the test on NCI/ADR-RES ovarian, 0.894 µM; in the test with SN12C renal, 13.1 µM; in the test with CCRF-CEM leukemia, > 67.8 µM.
Turning to `O=C(CSc1n[nH]c(=O)[nH]c1=O)NNC(=O)c1cccc2nc3ccccc3nc12`, the TGI in the test with HOP-62 NSCLC, in the test on PC-3 prostate, in the test on HCT-15 colon, in the test with KM12 colon, in the test with A549 NSCLC and with HCT-116 colon was > 100 µM throughout. For the same compound, the TGI is 97.5 µM in the test on MDA-N; > 100 µM in the test with HOP-92 NSCLC; > 100 µM in the test with NCI/ADR-RES ovarian; > 100 µM with SN12C renal; > 100 µM with CCRF-CEM leukemia.
Consider `CC1(C)CNC(=O)C2(C=NC(C)(C)CNC(=O)C3(C=N1)CCCO3)CCCO2` (stereo unspecified), for which the TGI in the test with HOP-62 NSCLC, with PC-3 prostate, in the test with HCT-15 colon, in the test on KM12 colon, in the test with A549 NSCLC and in the test on HCT-116 colon was > 10 µM throughout. Besides, the TGI in the test with MDA-N, in the test with HOP-92 NSCLC, in the test on NCI/ADR-RES ovarian, in the test on SN12C renal and with CCRF-CEM leukemia was > 10 µM throughout.
`Nc1ccc(S(=O)(=O)Nc2nc3ccccc3nc2N2CCCCC2)cc1`: the TGI in the test on HOP-62 NSCLC, with PC-3 prostate, in the test with HCT-15 colon, with KM12 colon, in the test on A549 NSCLC and in the test with HCT-116 colon was > 100 µM in each case. In addition, the TGI in the test on MDA-N, in the test on HOP-92 NSCLC, with NCI/ADR-RES ovarian, in the test on SN12C renal and with CCRF-CEM leukemia was > 100 µM in each case.
In the case of `NC(=O)c1cc2ccccc2o/c1=N/O`, the TGI in the test on HOP-62 NSCLC, with PC-3 prostate, in the test with HCT-15 colon, in the test with KM12 colon, in the test on A549 NSCLC and in the test on HCT-116 colon was > 100 µM in each case. Further, the TGI in the test with MDA-N, in the test with HOP-92 NSCLC, with NCI/ADR-RES ovarian, in the test on SN12C renal and in the test on CCRF-CEM leukemia was > 100 µM in each case.
With `CNC(=O)N(CCC#N)[C@H]1CCCC[C@@H]1N(C(=O)NC)c1ccccc1`, the TGI in the test with HOP-62 NSCLC, with PC-3 prostate, with HCT-15 colon, with KM12 colon, with A549 NSCLC and in the test on HCT-116 colon was > 100 µM each time. Besides, the TGI in the test on MDA-N, in the test with HOP-92 NSCLC, in the test on NCI/ADR-RES ovarian, in the test with SN12C renal and with CCRF-CEM leukemia was > 100 µM throughout.
Turning to `O=C1C=CC(=O)c2c(O)c(NCCc3ccc(O)cc3)c(Cl)c(O)c21`, the TGI in the test with HOP-62 NSCLC, in the test with PC-3 prostate, in the test with HCT-15 colon, with KM12 colon, in the test with A549 NSCLC and in the test on HCT-116 colon was > 10 µM in each case. For the same compound, the TGI with MDA-N, in the test with HOP-92 NSCLC, in the test on NCI/ADR-RES ovarian, in the test with SN12C renal and in the test on CCRF-CEM leukemia was > 10 µM throughout.
As to `COc1c(C)c2nc3ccccc3[nH]c2c2c(=O)ccnc12`, the TGI in the test on HOP-62 NSCLC, with PC-3 prostate, with HCT-15 colon, with KM12 colon, in the test on A549 NSCLC and with HCT-116 colon was > 100 µM each time. Further, the TGI with MDA-N, with HOP-92 NSCLC, in the test with NCI/ADR-RES ovarian, with SN12C renal and in the test with CCRF-CEM leukemia was > 100 µM in each case.
Turning to `CC1(C)C=C(S(=O)(=O)c2ccccc2)Oc2ccccc2O1`, the TGI in the test on HOP-62 NSCLC, in the test on PC-3 prostate, with HCT-15 colon, in the test on KM12 colon, with A549 NSCLC and in the test on HCT-116 colon was > 100 µM throughout. For the same compound, the TGI in the test with MDA-N was > 100 µM; in the test on HOP-92 NSCLC it was 67.5 µM; in the test with NCI/ADR-RES ovarian, > 100 µM; in the test with SN12C renal, > 100 µM; in the test with CCRF-CEM leukemia, > 100 µM.
`c1ccc(/C(=N/Nc2ccccn2)c2ncccn2)cc1`: the TGI is > 42.7 µM in the test with HOP-62 NSCLC; > 100 µM in the test with PC-3 prostate; > 100 µM with HCT-15 colon; > 53.8 µM with KM12 colon; > 76.9 µM in the test with A549 NSCLC; > 100 µM with HCT-116 colon. For the same compound, the TGI with MDA-N was > 100 µM; with HOP-92 NSCLC it was > 34.5 µM; in the test with NCI/ADR-RES ovarian, 4.67 µM; with SN12C renal it was > 100 µM; with CCRF-CEM leukemia, > 100 µM.
As for `Brc1ccc2c(-c3csc(-c4c[nH]c5ccc(Br)cc45)n3)c[nH]c2c1`, the TGI came out at 27.1 µM in the test with HOP-62 NSCLC; 19.8 µM in the test on PC-3 prostate; 14.5 µM in the test with HCT-15 colon; 6.4 µM in the test with KM12 colon; 19 µM in the test on A549 NSCLC; 13.9 µM in the test on HCT-116 colon. In addition, the TGI in the test with MDA-N is 16.6 µM; in the test with HOP-92 NSCLC, 9.27 µM; with NCI/ADR-RES ovarian, 21.2 µM; in the test with SN12C renal it was 18.9 µM; in the test on CCRF-CEM leukemia, > 29.2 µM.
With `Cc1nc(C)c(Cc2ccccc2)o1`, the TGI in the test with HOP-62 NSCLC, in the test with PC-3 prostate, in the test with HCT-15 colon, in the test with KM12 colon, with A549 NSCLC and with HCT-116 colon was > 100 µM each time. Besides, the TGI with MDA-N, in the test with NCI/ADR-RES ovarian, in the test on SN12C renal and with CCRF-CEM leukemia was > 100 µM in each case.
